Source: patent publication US10407440B2, “Therapeutic agent for motor disorders” (KYOWA HAKKO KIRIN CO., LTD., priority 2009, dated 2019)

Key:
Assay type in all cases: in vivo
[1] = test system: MPTP-treated common marmoset; test: Test Example 3: combination with L-DOPA in MPTP-treated common marmoset, motor disability score; settings: L-DOPA alone 2.5, 5.0, 7.5 and 10.0 mg/kg (with 1/4 amount benserazide hydrochloride)
Text: Parkinson's disease is a disease based on the progressive degeneration and loss of dopaminergic neuron in substantia nigra-striatum. In primates, a treatment with MPTP, which is a dopamine neurotoxin, causes selective degeneration and loss of dopaminergic neuron in substantia nigra-striatum and induces symptoms of akinesia, muscle rigidity and the like. The primates treated with MPTP are known as the model of Parkinson's disease [Proceedings of the National Academy of Science USA, vol. 80, p. 4546 (1983)]. In addition, common marmoset belongs to Haplorhini and is known to show the symptoms of Parkinson's disease by MPTP, like other Haplorhini [Neuroscience Letter, vol. 57, p. 37 (1985)]. […] The parkinsonian symptoms were judged using the index described in a previous report [Annales of Neurology, vol. 43, p. 507 (1998)]. All compounds were used as a suspension in 0.5% MC400, 10% aqueous sucrose solution. The subject animal was placed in an observation cage (with locomotor activity measuring apparatus) one day before the test compound administration for preconditioning to the environment. The symptoms of Parkinson's disease were continuously monitored through one-way mirror and disability score was scored each 10 min for 6 hr.
The locomotor activity was automatically measured using a computer by a measuring apparatus with a photocell.

[2] = test system: MPTP-treated common marmoset that developed motor complication; test: Test Example 4: combination with L-DOPA in MPTP-treated common marmoset that developed motor complication
Experimental: 10 mg/kg of L-DOPA (containing 2.5 mg/kg of benserazide hydrochloride) was administered by gavage to common marmoset that developed chronic parkinsonian symptoms by treatment with MPTP by the method described in Test Example 3 (MPTP-treated marmoset) twice a day at about 6 hr intervals. L-DOPA was repeatedly administered for more than 3 weeks to induction of motor complication (dyskinesia symptom, wearing-off phenomenon, on-off fluctuation and the like) in MPTP-treated marmoset in addition to parkinsonian symptoms, and the marmoset was used for the test. […] The locomotor activity was automatically measured using a computer by a measuring apparatus with a photocell. […] The subject animal was placed in an observation cage (with locomotor activity measuring apparatus) one day before the test compound administration for preconditioning to the environment. The symptoms of Parkinson's disease were continuously monitored through one-way mirror and disability score was scored each 10 min for 6 hr.

[3] = test system: MPTP-treated common marmoset that developed motor complication; test: Test Example 5: influence on dyskinesia in MPTP-treated common marmoset that developed motor complication; settings: L-DOPA alone 1.25, 2.5, 5.0, 7.5 and 10 mg/kg (with benserazide hydrochloride)
Experimental: 10 mg/kg of L-DOPA (containing 2.5 mg/kg of benserazide hydrochloride) was administered to common marmoset that developed chronic parkinsonian symptoms by treatment with MPTP by the method described in Test Example 3 (MPTP-treated marmoset) twice a day at about 6 hr intervals. L-DOPA was repeatedly administered for more than 3 weeks to induction of motor complication (dyskinesia symptom, wearing-off phenomenon, on-off fluctuation and the like) in MPTP-treated marmoset in addition to parkinsonian symptoms, and the marmoset was used for the test. The dyskinesia severity was rating using the rating scale described in a previous report [[…] of Neurology, vol. 43, p. 507 (1998)] as in Test Example 2. […] The subject animal was placed in an observation cage (with locomotor activity measuring apparatus) one day before the test compound administration for preconditioning to the environment. The dyskinesia symptoms were observed through one-way mirror and scored each 20 min for 6 hr. [table] The locomotor activity was automatically measured using a computer by a measuring apparatus with a photocell.

- dyskinesia [3]: dyskinesia was induced
SMILES: N[C@@H](Cc1ccc(O)c(O)c1)C(=O)O [L-DOPA]
- parkinsonian symptoms [1]: decreased within increasement of the dosage
- duration (on-time) of anti-parkinsonian activities of L-DOPA ([2]; L-DOPA 2.5 mg/kg alone, gavage): about 50 min
- minimum disability score ([2]; L-DOPA 2.5 mg/kg alone, gavage): 5.33±0.80
- parkinsonian symptoms ([2]; L-DOPA alone 2.5 mg/kg or 10 mg/kg (with benserazide hydrochloride)): decreased with the increasement of dosage
